From patent US20220119354A1, “DIAMINO-SUBSTITUTED PYRIDINES AND PYRIMIDINES AS HERBICIDES” (FMC Corporation, priority 2019, published 2022)

Assays:
Assay type in all cases: in vivo
[1] = tested on: barnyardgrass (Echinochloa crus-galli); experiment: Test A preemergence, barnyardgrass; conditions: 0 to 100 scale
In short: (§1)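 Greenhouse evaluation: treated and untreated pots were held about 10 d, then injury was rated visually from 0 (no effect) to 100 (complete control). Application was preemergence to soil or postemergence to seedlings 2–10 cm tall, using a non-phytotoxic solvent formulation with surfactant.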

kochia (Kochia scoparia) [2] = experiment: Test A preemergence, kochia; conditions: 0 to 100 scale
In short: as §1

[3] = tested on: ragweed (common ragweed, Ambrosia elatior); experiment: Test A preemergence, ragweed; conditions: 0 to 100 scale
In short: as §1

[4] = tested on: ryegrass, Italian (Lolium multiflorum); experiment: Test A preemergence, Italian ryegrass; conditions: 0 to 100 scale
In short: as §1

[5] = tested on: foxtail, giant (Setaria faberii); experiment: Test A preemergence, giant foxtail; conditions: 0 to 100 scale
In short: as §1

[6] = tested on: pigweed (Amaranthus retroflexus); experiment: Test A preemergence, pigweed; conditions: 0 to 100 scale
In short: as §1

[7] = tested on: barnyardgrass (Echinochloa crus-galli); experiment: Test A postemergence, barnyardgrass; conditions: 0 to 100 scale
In short: as §1

kochia (Kochia scoparia) [8] = experiment: Test A postemergence, kochia; conditions: 0 to 100 scale
In short: as §1

[9] = tested on: ragweed (common ragweed, Ambrosia elatior); experiment: Test A postemergence, ragweed; conditions: 0 to 100 scale
In short: as §1

[10] = tested on: ryegrass, Italian (Lolium multiflorum); experiment: Test A postemergence, Italian ryegrass; conditions: 0 to 100 scale
In short: as §1

[11] = tested on: foxtail, giant (Setaria faberii); experiment: Test A postemergence, giant foxtail; conditions: 0 to 100 scale
In short: as §1

[12] = tested on: pigweed (Amaranthus retroflexus); experiment: Test A postemergence, pigweed; conditions: 0 to 100 scale
In short: as §1

[13] = tested on: wheat (Triticum aestivum); experiment: Test A postemergence, wheat; conditions: 0 to 100 scale
In short: as §1

corn (Zea mays) = experiment: Test A postemergence, corn; conditions: 0 to 100 scale
In short: as §1

[14] = tested on: blackgrass (Alopecurus myosuroides); experiment: Test A postemergence, blackgrass; conditions: 0 to 100 scale
In short: as §1

[15] = tested on: galium (catchweed bedstraw, Galium aparine); experiment: Test A postemergence, galium; conditions: 0 to 100 scale
In short: as §1

rice (Oryza sativa) = experiment: Test B flooded paddy test, rice; conditions: Flood, 250 g ai/ha, applied to paddy water, 2-leaf stage, visual evaluation after 13 to 15 d
In short: (§2)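 Visual injury scores run from 0 (no effect) to 100 (complete control), assigned by comparison with controls 13 to 15 d after treatment. Treatment went into floodwater standing 3 cm over the soil of pots holding 2-leaf plants.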

[16] = tested on: sedge, umbrella (small-flower umbrella sedge, Cyperus difformis); experiment: Test B flooded paddy test, umbrella sedge; conditions: Flood, 250 g ai/ha, applied to paddy water, 2-leaf stage, visual evaluation after 13 to 15 d
In short: as §2

[17] = tested on: ducksalad (Heteranthera limosa); experiment: Test B flooded paddy test, ducksalad; conditions: Flood, 250 g ai/ha, applied to paddy water, 2-leaf stage, visual evaluation after 13 to 15 d
In short: as §2

[18] = tested on: barnyardgrass (Echinochloa crus-galli); experiment: Test B flooded paddy test, barnyardgrass; conditions: Flood, 250 g ai/ha, applied to paddy water, 2-leaf stage, visual evaluation after 13 to 15 d
In short: as §2

| SMILES | Plant response rating, Barnyardgrass ([1]; 125 g ai/ha) | Plant response rating, Barnyardgrass ([1]; 500 g ai/ha) | Plant response rating, Kochia (kochia (Kochia scoparia) [2]; 125 g ai/ha) | Plant response rating, Kochia (kochia (Kochia scoparia) [2]; 500 g ai/ha) | Plant response rating, Ragweed ([3]; 125 g ai/ha) | Plant response rating, Ragweed ([3]; 500 g ai/ha) | Plant response rating, Ryegrass, Italian ([4]; 125 g ai/ha) | Plant response rating, Ryegrass, Italian ([4]; 500 g ai/ha) | Plant response rating, Foxtail, Giant ([5]; 125 g ai/ha) | Plant response rating, Foxtail, Giant ([5]; 500 g ai/ha) | Plant response rating, Pigweed ([6]; 125 g ai/ha) | Plant response rating, Pigweed ([6]; 500 g ai/ha) | Plant response rating, Barnyardgrass ([7]; 125 g ai/ha) | Plant response rating, Barnyardgrass ([7]; 500 g ai/ha) | Plant response rating, Kochia (kochia (Kochia scoparia) [8]; 125 g ai/ha) | Plant response rating, Kochia (kochia (Kochia scoparia) [8]; 500 g ai/ha) | Plant response rating, Ragweed ([9]; 125 g ai/ha) | Plant response rating, Ragweed ([9]; 500 g ai/ha) | Plant response rating, Ryegrass, Italian ([10]; 125 g ai/ha) | Plant response rating, Ryegrass, Italian ([10]; 500 g ai/ha) | further results |
| --- | --- | --- | --- | --- | --- | --- | --- | --- | --- | --- | --- | --- | --- | --- | --- | --- | --- | --- | --- | --- | --- |
| CC(Nc1ncc(C(F)(F)F)c(N)n1)C1Cc2ccccc2C1 (racemic) [Compound 6] | 0 | 60 | 80 | 100 | 30 | 100 | 30 | 70 | 90 | 100 | 100 | 100 | 10 | 10 | 70 | 90 | 20 | 40 | 0 | 20 | Plant response rating, Foxtail, Giant ([11]; 125 g ai/ha): 0; Plant response rating, Foxtail, Giant ([11]; 500 g ai/ha): 20; Plant response rating, Pigweed ([12]; 125 g ai/ha): 90; Plant response rating, Pigweed ([12]; 500 g ai/ha): 100; Plant response rating, Wheat ([13]; 125 g ai/ha): 0; Plant response rating, Wheat ([13]; 500 g ai/ha): 0; Plant response rating, Corn (corn (Zea mays); 125 g ai/ha): 0; Plant response rating, Corn (corn (Zea mays); 500 g ai/ha): 20; Plant response rating, Blackgrass ([14]; 125 g ai/ha): 0; Plant response rating, Blackgrass ([14]; 500 g ai/ha): 10; Plant response rating, Galium ([15]; 125 g ai/ha): 40; Plant response rating, Galium ([15]; 500 g ai/ha): 70; Plant response rating, Rice (0 to 100 scale, 0 is no effect, 100 is complete control) (rice (Oryza sativa)): 0; Plant response rating, Sedge, Umbrella (0 to 100 scale, 0 is no effect, 100 is complete control) [16]: 0; Plant response rating, Ducksalad (0 to 100 scale, 0 is no effect, 100 is complete control) [17]: 0; Plant response rating, Barnyardgrass (0 to 100 scale, 0 is no effect, 100 is complete control) [18]: 0 |
| Nc1nc(NC(c2cc3ccccc3o2)C2CC2)ncc1C(F)(F)F (racemic) [Compound 18] | 50 | 80 | 0 | 60 | 80 | 100 | 50 | 50 | 90 | 90 | 90 | 100 | 10 | 80 | 50 | 90 | 20 | 70 | 0 | 30 | Plant response rating, Foxtail, Giant ([11]; 125 g ai/ha): 0; Plant response rating, Foxtail, Giant ([11]; 500 g ai/ha): 70; Plant response rating, Pigweed ([12]; 125 g ai/ha): 90; Plant response rating, Pigweed ([12]; 500 g ai/ha): 100; Plant response rating, Wheat ([13]; 125 g ai/ha): 20; Plant response rating, Wheat ([13]; 500 g ai/ha): 10; Plant response rating, Corn (corn (Zea mays); 125 g ai/ha): 0; Plant response rating, Corn (corn (Zea mays); 500 g ai/ha): 0; Plant response rating, Blackgrass ([14]; 125 g ai/ha): 20; Plant response rating, Blackgrass ([14]; 500 g ai/ha): 80; Plant response rating, Galium ([15]; 125 g ai/ha): 40; Plant response rating, Galium ([15]; 500 g ai/ha): 90; Plant response rating, Rice (0 to 100 scale, 0 is no effect, 100 is complete control) (rice (Oryza sativa)): 0; Plant response rating, Sedge, Umbrella (0 to 100 scale, 0 is no effect, 100 is complete control) [16]: 98; Plant response rating, Ducksalad (0 to 100 scale, 0 is no effect, 100 is complete control) [17]: 85; Plant response rating, Barnyardgrass (0 to 100 scale, 0 is no effect, 100 is complete control) [18]: 0 |
| CC(Nc1ncc(C#N)c(N)n1)c1cc2ccccc2o1 (racemic) [Compound 19] | 0 | 0 | 0 | 20 | 0 | 50 | 0 | 60 | 0 | 20 | 30 | 90 | 0 | 0 | 0 | 30 | 0 | 0 | 0 | 20 | Plant response rating, Foxtail, Giant ([11]; 125 g ai/ha): 0; Plant response rating, Foxtail, Giant ([11]; 500 g ai/ha): 0; Plant response rating, Pigweed ([12]; 125 g ai/ha): 0; Plant response rating, Pigweed ([12]; 500 g ai/ha): 50; Plant response rating, Wheat ([13]; 125 g ai/ha): 0; Plant response rating, Wheat ([13]; 500 g ai/ha): 0; Plant response rating, Corn (corn (Zea mays); 125 g ai/ha): 0; Plant response rating, Corn (corn (Zea mays); 500 g ai/ha): 10; Plant response rating, Blackgrass ([14]; 125 g ai/ha): 20; Plant response rating, Blackgrass ([14]; 500 g ai/ha): 60; Plant response rating, Galium ([15]; 125 g ai/ha): 0; Plant response rating, Galium ([15]; 500 g ai/ha): 70; Plant response rating, Rice (0 to 100 scale, 0 is no effect, 100 is complete control) (rice (Oryza sativa)): 0; Plant response rating, Sedge, Umbrella (0 to 100 scale, 0 is no effect, 100 is complete control) [16]: 0; Plant response rating, Ducksalad (0 to 100 scale, 0 is no effect, 100 is complete control) [17]: 0; Plant response rating, Barnyardgrass (0 to 100 scale, 0 is no effect, 100 is complete control) [18]: 0 |
| CCC(Nc1ncc(C#N)c(N)n1)c1cc2ccccc2o1 (racemic) [Compound 20] | 40 | 50 | 0 | 30 | 40 | 60 | 30 | 90 | 0 | 80 | 50 | 100 | 0 | 40 | 50 | 90 | 20 | 70 | 0 | 0 | Plant response rating, Foxtail, Giant ([11]; 125 g ai/ha): 0; Plant response rating, Foxtail, Giant ([11]; 500 g ai/ha): 10; Plant response rating, Pigweed ([12]; 125 g ai/ha): 60; Plant response rating, Pigweed ([12]; 500 g ai/ha): 90; Plant response rating, Wheat ([13]; 125 g ai/ha): 0; Plant response rating, Wheat ([13]; 500 g ai/ha): 10; Plant response rating, Corn (corn (Zea mays); 125 g ai/ha): 0; Plant response rating, Corn (corn (Zea mays); 500 g ai/ha): 20; Plant response rating, Blackgrass ([14]; 125 g ai/ha): 30; Plant response rating, Blackgrass ([14]; 500 g ai/ha): 100; Plant response rating, Galium ([15]; 125 g ai/ha): 30; Plant response rating, Galium ([15]; 500 g ai/ha): 80; Plant response rating, Rice (0 to 100 scale, 0 is no effect, 100 is complete control) (rice (Oryza sativa)): 0; Plant response rating, Sedge, Umbrella (0 to 100 scale, 0 is no effect, 100 is complete control) [16]: 0; Plant response rating, Ducksalad (0 to 100 scale, 0 is no effect, 100 is complete control) [17]: 0; Plant response rating, Barnyardgrass (0 to 100 scale, 0 is no effect, 100 is complete control) [18]: 0 |
